Laboratory results from patent US10881642B2, “Autophagy enhancer and use thereof” (Industry-Academic Cooperation Foundation, Yonsei University, priority 2016, dated 2021).

Legend:
HFD-fed hIAPP+ mice = test: Metabolic profile and islet amyloid of HFD-fed hIAPP+ mice; format: in vivo
Method: (FIG. 13A) INS-1 cells transfected with non-amyloidogenic prepro-mIAPP-HA or amyloidogenic prepro-hIAPP-HA construct were treated with MSL or MSL-7 followed by western blot analysis using anti-HA antibody. (FIG. 13B) the transfected cells of (FIG. 13A) were treated with MSL-7 in the presence or absence of bafilomycin followed by western blot analysis using anti-HA antibody. (FIG. 13C) The transfected cells were treated with MSL-7 in the presence or absence of 3-MA, after which the amount of […] contained in the cell lysates were measured. (FIG. 13D) HFD-fed hIAPP+ mice were administered with MSL-7, and non-fasting glucose level was monitored. (FIG. 13E) IPGTT. (FIG. 13F) HFD-fed hIAPP+ mice were administered with MSL-7 for 8 weeks and the insulinogenic index was measured. (FIG. 13G) HFD-fed hIAPP+ mice were administered with MSL-7 for 8 weeks and the pancreatic section was obtained. All antibody was used for immunohistochemistry (left). The percentage of A11-[…] cells among DAPI+ cells (right). (FIG. 13H) FSB stained pancreatic section of HFD-fed hIAPP+ mice administered with MSL-7 for 8 weeks (left). Average fluorescence intensity/area (right).
Screening of autophagy enhancer. […] Luciferase assay. Firefly and Renilla luciferase assays were conducted using the Dual-Luciferase Reporter Assay System (Promega) according to the manufacturer's recommendation. In brief, cells were lysed in 1× lysis buffer and subjected to a single round of freezing/thawing. Firefly luciferase was determined after mixing 5 μl of lysate with 25 μl of Luciferase Assay Reagent II. Renilla luciferase was then determined after further addition of 20 ul of Stop&Glo Reagent. Cell culture and media and drugs treatment. HeLa, TFEB-GFP-HeLa, SK-HEP1 (hepatoma cell line) and Hepa1c1c7 (hepatoma cell line) cells were cultured in the following media: (normal) Dulbecco's modified Eagle's medium (DMEM, Sigma-Aldrich) supplemented with 10% FBS and 1% penicillin/streptomycin; (starvation) HBSS media with Ca and Mg supplemented with 10 mM HEPES; Drugs treatment: MSL compound (50-100 μM); Rapamycin ([…]); Torin-1 (1 μM); Bafilomycin (100 nM); Cyclosporin A (10 μM); and FK506 (5 μM). Cells were treated with oleic acid (400 μM) and palmitic acid (400 μM) for 24 h. Where indicated, cells were washed off with HBSS and replaced by DMEM with or without MSL for 16 h. INS-1 cells, a insulinoma cell line of […] were cultured as described previously (Kim et al., 2014 ibid) in the presence or absence of bafilomycin and treated with MSL-7. Lactate dehydrogenase (LDH) assay. Cytotoxicity was determined by the measurement of LDH release in cell culture media using the LDH kit (Roche), according to the protocol from the manufacturer. Transfection and plasmids. Cells were transiently transfected with DNA plasmids 3×FLAG-hTFEB (A Ballabio), FYVE-dsRed (Cantley LC), RFP-LC3 or mRFP-GFP-LC3 using lipofectamine 2000 (Invitrogen) according to the protocol from the manufacturer. […] Imaging and image quantification. […] Formation of acidic vesicular organelles was quantitated by staining the cells with acridine orange (Invitrogen, 5 ug/ml, 10 min). […] Cells or tissues were solubilized in lysis buffer supplemented with protease and phosphatase inhibitors and protein concentration was measured by the Bradford method. Ten to 30 micrograms were loaded on 4-12% Bis-Tris gel (NUPAGE, Invitrogen) or 8-15% SDS-PAGE, transferred to PVDF membranes and analyzed by western blot using the ECL method (Pierce). […]

HeLa cells = test: GCaMP3-ML1 lysosomal Ca2+ release imaging; format: cell-based; conditions: GPN 200 μM; ionomycin 1 μM
Method: HeLa cells were transfected with perilysosomal GCaMP3-ML1 calcium probe, and Ratiometric image (474 and 410 nm excitation) was obtained.
GCaMP3 Ca2+ Imaging. HeLa cells were grown on 15 mm coverslips and transfected with plasmid encoding the perilysosomal-localized ML1-GCaMP3 calcium probes.

[1] = tested on: primary peritoneal macrophages; test: Mitochondrial ROS (MitoSOX) and potential (MitoTracker) by FACS; format: cell-based, C57BL/6 mice; conditions: PA plus LPS

SMILES | non-fasting glucose level (HFD-fed hIAPP+ mice) | FSB-stained pancreatic islet amyloid (HFD-fed hIAPP+ mice; 8-week administration) | accumulation of hIAPP oligomer (A11 antibody) (HFD-fed hIAPP+ mice; 8-week administration) | Glucose intolerance (IPGTT) (HFD-fed hIAPP+ mice; 8 week treatment) | insulinogenic index (HFD-fed hIAPP+ mice; 8 week treatment) | lysosomal Ca2+ release (HeLa cells) | mitochondrial ROS content (MitoSox) [1] | mitochondrial potential (MitoTracker Red) [1]
COc1oc(-c2ccccc2Cl)nc1S(=O)(=O)c1ccccc1 [MSL-7, 2-(2-chlorophenyl)-5-methoxy-4-(phenylsulfonyl) oxazole] | significantly reduced | similarly reduced | significantly reduced | significantly improved | significantly improved |  |  | 
CSc1oc(-c2ccccc2)nc1S(=O)(=O)c1ccc(F)cc1 [MSL] |  |  |  |  |  | no increase of lysosomal Ca2+ release | significantly reduced | significantly reduced
